# According to patent publication US12492186B2, “Bicyclic heterocyclic compounds useful as IRAK4 inhibitors” (BRISTOL-MYERS SQUIBB COMPANY, priority 2019, dated 2025):
# Biological target: IRAK4 (Homo sapiens (Human), UniProt Q9NWZ3)
# Assay: IRAK4 Inhibition Assay
# Type: biochemical
# Settings: ATP 500 μM; IRAK4 0.6 nM; 60 min room temperature; Caliper LABCHIP 3000
# Method: The assays were performed in U-bottom 384-well plates. The final assay volume was 30 μL prepared from 15 μL additions of enzyme and substrates (fluoresceinated peptide and ATP) and test compounds in assay buffer (20 mM HEPES pH 7.2, 10 mM MgCl2, 0.015% Brij 35 and 4 mM DTT). The reaction was initiated by the combination of IRAK4 with substrates and test compounds. The reaction mixture was incubated at room temperature for 60 min. and terminated by adding 45 μL of 35 mM EDTA to each sample. The reaction mixture was analyzed on the Caliper LABCHIP® 3000 (Caliper, Hopkinton, MA) by electrophoretic separation of the fluorescent substrate and phosphorylated product. Inhibition data were calculated by comparison to no enzyme control reactions for 100% inhibition and vehicle-only reactions for 0% inhibition. The final concentrations of reagents in the assays are ATP, 500 μM; FL-IPTSPITTTYFFFKKK peptide 1.5 μM; IRAK4, 0.6 nM; and DMSO, 1.6%.
# Sequence of IRAK4 (Q9NWZ3 whole entry, species assumed): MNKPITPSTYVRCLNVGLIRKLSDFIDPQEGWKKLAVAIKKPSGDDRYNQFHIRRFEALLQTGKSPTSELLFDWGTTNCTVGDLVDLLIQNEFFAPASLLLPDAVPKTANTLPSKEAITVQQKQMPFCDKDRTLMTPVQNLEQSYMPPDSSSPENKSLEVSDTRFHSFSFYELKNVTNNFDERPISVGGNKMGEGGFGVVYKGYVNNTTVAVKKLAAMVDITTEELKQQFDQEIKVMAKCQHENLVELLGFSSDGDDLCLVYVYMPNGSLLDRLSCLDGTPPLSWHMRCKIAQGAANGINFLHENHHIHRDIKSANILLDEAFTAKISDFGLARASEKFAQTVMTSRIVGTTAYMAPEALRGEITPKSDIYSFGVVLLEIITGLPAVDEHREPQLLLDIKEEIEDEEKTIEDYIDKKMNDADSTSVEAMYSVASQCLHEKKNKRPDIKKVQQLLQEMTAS
row,SMILES,IC50 [nM]
1,"Cc1cc2ncc(C(=O)NCCC(C)(C)O)c(NC(C)C)c2cc1-c1cncs1 [Example 61, N-(3-hydroxy-3-methylbutyl)-4-(isopropylamino)-7-methyl-6-(thiazol-5-yl)quinoline-3-carboxamide]",231
2,"O=C(NCCC(F)F)c1cnc2ccc(-c3cn[nH]c3)cc2c1NCC(F)F [Example 67, 4-((2,2-difluoroethyl)amino)-N-(3,3-difluoropropyl)-6-(1H-pyrazol-4-yl)quinoline-3-carboxamide]",22.9
3,"CC(C)Nc1c(C(=O)NCCC(C)(C)O)cnc2ccc(-c3ccc(C#N)nc3)cc12 [Example 69, 6-(6-cyanopyridin-3-yl)-N-(3-hydroxy-3-methylbutyl)-4-(isopropylamino)quinoline-3-carboxamide]",131
4,"Cc1cc(-c2ccc3ncc(C(=O)NCCC(C)(C)O)c(NC(C)C)c3c2)cnc1F [Example 71, 6-(6-fluoro-5-methylpyridin-3-yl)-N-(3-hydroxy-3-methylbutyl)-4-(isopropylamino)quinoline-3-carboxamide]",307
5,"CC(C)Nc1c(C(=O)NCCC(C)(C)O)cnc2ccc(-c3cncc(F)c3)cc12 [Example 72, 6-(5-fluoropyridin-3-yl)-N-(3-hydroxy-3-methylbutyl)-4-(isopropylamino)quinoline-3-carboxamide]",176
6,"CC(C)Nc1c(C(=O)NCCC(C)(C)O)cnc2ccc(-c3ccc(F)nc3F)cc12 [Example 73, 6-(2,6-difluoropyridin-3-yl)-N-(3-hydroxy-3-methylbutyl)-4-(isopropylamino)quinoline-3-carboxamide]",51.2
7,"CC(C)Nc1c(C(=O)NCCC(C)(C)O)cnc2ccc(-c3ccc(=O)[nH]c3)cc12 [Example 74, N-(3-hydroxy-3-methylbutyl)-4-(isopropylamino)-6-(6-oxo-1,6-dihydropyridin-3-yl)quinoline-3-carboxamide]",124
8,"O=C(NCCC1CC1)c1cnc2ccc(-c3cn[nH]c3)cc2c1NCC(F)F [Example 75, N-(2-cyclopropylethyl)-4-((2,2-difluoroethyl)amino)-6-(1H-pyrazol-4-yl)quinoline-3-carboxamide]",20.1
9,"CC(C)Nc1c(C(=O)NC2CCN(C(=O)CC(F)(F)F)CC2)cnc2ccc(-c3cn[nH]c3)cc12 [Example 83, 4-(isopropylamino)-6-(1H-pyrazol-4-yl)-N-(1-(3,3,3-trifluoropropanoyl)piperidin-4-yl)quinoline-3-carboxamide]",24.5
10,"CC(C)Nc1c(C(=O)NCCN2CCCCC2=O)cnc2ccc(-c3cn[nH]c3)cc12 [Example 86, 4-(isopropylamino)-N-(2-(2-oxopiperidin-1-yl)ethyl)-6-(1H-pyrazol-4-yl)quinoline-3-carboxamide]",28.6
11,"CC(C)Nc1c(C(=O)NCC(=O)N2CCOCC2)cnc2ccc(-c3cn[nH]c3)cc12 [Example 90, 4-(isopropylamino)-N-(2-morpholino-2-oxoethyl)-6-(1H-pyrazol-4-yl)quinoline-3-carboxamide]",34.4
12,"CC(C)Nc1c(C(=O)NC2CN(S(C)(=O)=O)C2)cnc2ccc(-c3cn[nH]c3)cc12 [Example 92, 4-(isopropylamino)-N-(1-(methylsulfonyl)azetidin-3-yl)-6-(1H-pyrazol-4-yl)quinoline-3-carboxamide]",32.2
13,"CC(C)(O)CCNc1c(C(N)=O)cnc2ccc(-c3cn[nH]c3)cc12 [Example 99, 4-((3-hydroxy-3-methylbutyl)amino)-6-(1H-pyrazol-4-yl)quinoline-3-carboxamide]",264
14,"CC(C)Nc1c(C(=O)Nc2ccc(N3CCOCC3)nc2)cnc2ccc(-c3cn[nH]c3)cc12 [Example 100, 4-(isopropylamino)-N-(6-morpholinopyridin-3-yl)-6-(1H-pyrazol-4-yl)quinoline-3-carboxamide]",4.5
15,"CC(C)Nc1c(C(=O)NCCc2c[nH]cn2)cnc2ccc(-c3cn[nH]c3)cc12 [Example 102, N-(2-(1H-imidazol-4-yl)ethyl)-4-(isopropylamino)-6-(1H-pyrazol-4-yl)quinoline-3-carboxamide]",23
16,"CC(C)Nc1c(C(=O)NCCc2ncn[nH]2)cnc2ccc(-c3cn[nH]c3)cc12 [Example 104, N-(2-(1H-1,2,4-triazol-5-yl)ethyl)-4-(isopropylamino)-6-(1H-pyrazol-4-yl) quinoline-3-carboxamide]",35.4
17,"CC(C)Nc1c(C(=O)NCCc2ncno2)cnc2ccc(-c3cn[nH]c3)cc12 [Example 106, N-(2-(1,2,4-oxadiazol-5-yl)ethyl)-4-(isopropylamino)-6-(1H-pyrazol-4-yl)quinoline-3-carboxamide]",118
18,"CNc1c(C(N)=O)cnc2ccc(-c3cn[nH]c3)cc12 [Example 108, 4-(methylamino)-6-(1H-pyrazol-4-yl)quinoline-3-carboxamide]",554
19,"CC(C)Nc1c(C(=O)NCCc2nnn[nH]2)cnc2ccc(-c3cn[nH]c3)cc12 [Example 110, N-(2-(1H-tetrazol-5-yl)ethyl)-4-(isopropylamino)-6-(1H-pyrazol-4-yl)quinoline-3-carboxamide]",212

# The remaining compounds from weak to strong by IC50, led by results:
row,IC50 [nM],SMILES
1,1810,"CC(C)Nc1c(C(=O)NC(C)(C)C(=O)N2CCOCC2)cnc2ccc(-c3cn[nH]c3)cc12 [Example 91, 4-(isopropylamino)-N-(2-methyl-1-morpholino-1-oxopropan-2-yl)-6-(1H-pyrazol-4-yl) quinoline-3-carboxamide]"
2,1550,"CNc1c(C(N)=O)cnc2ccc(-c3cncs3)cc12 [Example 111, 4-(methylamino)-6-(thiazol-5-yl)quinoline-3-carboxamide]"
3,338,"CC(C)Nc1c(C(=O)NCC2(C)NC(=O)NC2=O)cnc2ccc(-c3cn[nH]c3)cc12 (centres unmarked) [Example 105, 4-(isopropylamino)-N-((4-methyl-2,5-dioxoimidazolidin-4-yl)methyl)-6-(1H-pyrazol-4-yl)quinoline-3-carboxamide]"
4,119,"CC(C)Nc1c(C(=O)NCCC(C)(C)O)cnc2ccc(-c3ccc(F)nc3)cc12 [Example 70, 6-(6-fluoropyridin-3-yl)-N-(3-hydroxy-3-methylbutyl)-4-(isopropylamino)quinoline-3-carboxamide]"
5,107,"CC(C)Cc1nc(-c2cnc3ccc(-c4cn[nH]c4)cc3c2NC(C)C)n[nH]1 [Example 124, 3-(5-isobutyl-1H-1,2,4-triazol-3-yl)-N-isopropyl-6-(1H-pyrazol-4-yl)quinolin-4-amine]"
6,60.7,"CNC(=O)CCNC(=O)c1cnc2ccc(-c3cn[nH]c3)cc2c1NCC(F)F [Example 66, 4-((2,2-difluoroethyl)amino)-N-(3-(methylamino)-3-oxopropyl)-6-(1H-pyrazol-4-yl)quinoline-3-carboxamide]"
7,43.7,"O=C(NCC1CCS(=O)(=O)CC1)c1cnc2ccc(-c3cn[nH]c3)cc2c1NC1CC1 [Example 116, 4-(cyclopropylamino)-N-((1,1-dioxidotetrahydro-2H-thiopyran-4-yl)methyl)-6-(1H-pyrazol-4-yl)quinoline-3-carboxamide]"
8,38,"CC(C)Nc1c(C(=O)N[C@H]2C[C@H](O)C2)cnc2ccc(-c3cn[nH]c3)cc12 [Example 60, N-((1r,3r)-3-hydroxycyclobutyl)-4-(isopropylamino)-6-(1H-pyrazol-4-yl)quinoline-3-carboxamide]"
9,35.1,"O=C(NCCC(F)(F)F)c1cnc2ccc(-c3cn[nH]c3)cc2c1NCC(F)F [Example 68, 4-((2,2-difluoroethyl)amino)-6-(1H-pyrazol-4-yl)-N-(3,3,3-trifluoropropyl)quinoline-3-carboxamide]"
10,34.4,"O=C(NCCN1CCOCC1)c1cnc2ccc(-c3cn[nH]c3)cc2c1NCC(F)F [Example 63, 4-((2,2-difluoroethyl)amino)-N-(2-morpholinoethyl)-6-(1H-pyrazol-4-yl)quinoline-3-carboxamide]"
11,32.8,"CC(C)Nc1c(C(=O)NC2CCN(S(=O)(=O)CCC(F)(F)F)CC2)cnc2ccc(-c3cn[nH]c3)cc12 [Example 89, 4-(isopropylamino)-6-(1H-pyrazol-4-yl)-N-(1-((3,3,3-trifluoropropyl)sulfonyl)piperidin-4-yl)quinoline-3-carboxamide]"
12,29.9,"COC(=O)NC1CC(NC(=O)c2cnc3ccc(-c4cn[nH]c4)cc3c2NC2CC(F)(F)C2)C1 (centres unmarked) [Example 58, methyl ((1r,3r)-3-(4-((3,3-difluorocyclobutyl)amino)-6-(1H-pyrazol-4-yl)quinoline-3-carboxamido)cyclobutyl)carbamate]"
13,29.3,"CC(C)Nc1c(C(=O)NCCC2CCCN2C(=O)C2CC2)cnc2ccc(-c3cn[nH]c3)cc12 (centres unmarked) [Example 93, N-(2-(1-(cyclopropanecarbonyl)pyrrolidin-2-yl)ethyl)-4-(isopropylamino)-6-(1H-pyrazol-4-yl)quinoline-3-carboxamide]"
14,28,"CC(O)CCNC(=O)c1cnc2ccc(-c3cn[nH]c3)cc2c1NCC(F)F (centres unmarked) [Example 64, 4-((2,2-difluoroethyl)amino)-N-(3-hydroxybutyl)-6-(1H-pyrazol-4-yl)quinoline-3-carboxamide]"
15,22.3,"CC(C)(O)CCNC(=O)c1cnc2ccc(-c3cn[nH]c3)cc2c1NCC(F)F [Example 62, 4-((2,2-difluoroethyl)amino)-N-(3-hydroxy-3-methylbutyl)-6-(1H-pyrazol-4-yl)quinoline-3-carboxamide]"
16,20.7,"CC(=O)N1CCCC1CCNC(=O)c1cnc2ccc(-c3cn[nH]c3)cc2c1NC(C)C (centres unmarked) [Example 85, N-(2-(1-acetylpyrrolidin-2-yl)ethyl)-4-(isopropylamino)-6-(1H-pyrazol-4-yl) quinoline-3-carboxamide]"
